Experimental findings from US7601737B2, “Isotopically substituted proton pump inhibitors” (priority 2005, dated 2009) are described below.

The nature of data set [1]: Metabolisation in liver microsomes (rat). The class given is in vitro ADME. Particulars: for Percent of compound metabolized: 10 μM, 90 minutes incubation. As for the experimental part:
(§1) Pantoprazole or examples 1 or 2 (10 μM each) were incubated with liver microsomes (source: all from GenTest except Mini Pig from TEBU),incubation in 1 mg/ml protein, 100 mM Tris-HCl, pH 7.4, 1 mM NADPH2). Reaction was terminated after 90 minutes by liquid nitrogen, the parent compound was detected by HPLC (10 mM KH2PO4, pH 7.4, acetonitril gradient 20-44%).
A general note: Microsomes from liver hold many membrane-bound enzymes, among them those of drug oxidation.

Data set [2] can be described thus: Metabolisation in liver microsomes (dog). Particulars: for Percent of compound metabolized: 10 μM, 90 minutes incubation. The class given is in vitro ADME. As for the experimental part:
as §1

Data set [3] in a line: Metabolisation in liver microsomes (human). The class given is in vitro ADME. Particulars: for Percent of compound metabolized: 10 μM, 90 minutes incubation. As for the experimental part: as §1
Data set [4] can be described thus: Metabolisation in liver microsomes (mouse). The class given is in vitro ADME. Particulars: for Percent of compound metabolized: 10 μM, 90 minutes incubation. As for the experimental part: as §1
A short description of data set [5]: Metabolisation in liver microsomes (guinea pig). The class given is in vitro ADME. The note with it: Guinee pig liver microsomes; for Percent of compound metabolized: 10 μM, 90 minutes incubation. How it is done: as §1
Data set [6] is described as follows: Metabolisation in liver microsomes (monkey). The class given is in vitro ADME. The note with it: for Percent of compound metabolized: 10 μM, 90 minutes incubation. As for the experimental part:
as §1

The nature of data set [7]: Metabolisation in liver microsomes (mini pig). The class given is in vitro ADME. Particulars: for Percent of compound metabolized: 10 μM, 90 minutes incubation. As for the experimental part: as §1
The next data set has as its target T1, CYP2C19 (Homo sapiens, UniProt P33261).
T1 construct: purchased Cypex, Dundee, UK
Put plainly: Metabolic clearance in recombinant human cytochrome P450 CYP2C19. The note with it: recombinant P450 0.5 nmol/mL, disappearance of parent compound; lower limit of assay resolution 17.6 μl/min/nmol P450. The class given is in vitro ADME. How it is done:
Incubations were carried out in triplicate.

Data set [8] relates to human cryopreserved hepatocytes. The note with it: human, 60 min.
Protocol: Following the evaluation of the metabolic clearance of the compounds according to the invention via P450 enzymes, the formation kinetics of the main metabolite identified in humans, i.e. M2 (5-(difluoromethoxy)-2-[[(3-methoxy-4-sulfate-2-pyridyl)-methyl]sulfinyl]-1H-benzimidazole) was determined. Because the generation of M2 involves the oxidation of the 4-methoxy-pyridyl group by CYP2C19 and subsequent conjugation with 3′-phosphoadenosine-5′-phosphosulfate (PAPS) by an unidentified sulphotransferase, human cryopreserved hepatocytes were used since both phase I and phase II enzymes are functional in this in vitro system.
M2 formation rate under these conditions was linear up to 60 min. The M2 formation rate was determined at nine different compound concentrations (0, 0.5, 1.0, 2.5, 5.0, 10.0, 25.0, 50.0 and 100 μMol/L) incubated in duplicate for 60 min at 37° C. M2 was quantified using LC-MS/MS. M2 isolated from human urine was used as an external standard. The concentration to reach the half-maximal formation rate (KM-value) and the maximal formation rate (Vmax) were obtained by non-linear regression analysis using the Michaelis-Menten equation. The intrinsic clearance (Clint) was obtained dividing Vmax over KM.
In a further data set the target is CYP3A4 (Homo sapiens, UniProt P08684). Put plainly: Metabolic clearance in recombinant human cytochrome P450 CYP3A4. The note with it: recombinant P450 1 nmol/mL, disappearance of parent compound; lower limit of assay resolution 17.6 μl/min/nmol P450.
Another data set can be described thus: in vitro. The note with it: human, hepatocytes. An excerpt: (§2) 5-hydroxy-omeprazole was quantified using LC-MS/MS.
Data set [9] relates to human cryopreserved hepatocytes. The data set can be described thus: in vitro. Particulars: human, hepatocytes.
Excerpt: as §2

Chain of CYP3A4 (P08684 whole entry): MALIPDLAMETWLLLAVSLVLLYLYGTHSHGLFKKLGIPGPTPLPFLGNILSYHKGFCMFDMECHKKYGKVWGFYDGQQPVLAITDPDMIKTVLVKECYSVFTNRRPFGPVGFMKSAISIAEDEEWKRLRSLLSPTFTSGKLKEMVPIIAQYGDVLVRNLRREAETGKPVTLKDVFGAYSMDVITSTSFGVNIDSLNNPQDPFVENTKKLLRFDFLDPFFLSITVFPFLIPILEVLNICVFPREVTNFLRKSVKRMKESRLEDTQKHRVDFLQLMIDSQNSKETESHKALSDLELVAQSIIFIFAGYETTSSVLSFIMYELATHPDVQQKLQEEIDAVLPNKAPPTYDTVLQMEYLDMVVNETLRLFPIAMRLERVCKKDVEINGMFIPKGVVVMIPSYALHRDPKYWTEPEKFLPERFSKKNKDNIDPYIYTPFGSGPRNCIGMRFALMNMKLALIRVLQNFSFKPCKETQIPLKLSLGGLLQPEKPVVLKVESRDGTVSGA
T1 sequence (P33261 whole entry): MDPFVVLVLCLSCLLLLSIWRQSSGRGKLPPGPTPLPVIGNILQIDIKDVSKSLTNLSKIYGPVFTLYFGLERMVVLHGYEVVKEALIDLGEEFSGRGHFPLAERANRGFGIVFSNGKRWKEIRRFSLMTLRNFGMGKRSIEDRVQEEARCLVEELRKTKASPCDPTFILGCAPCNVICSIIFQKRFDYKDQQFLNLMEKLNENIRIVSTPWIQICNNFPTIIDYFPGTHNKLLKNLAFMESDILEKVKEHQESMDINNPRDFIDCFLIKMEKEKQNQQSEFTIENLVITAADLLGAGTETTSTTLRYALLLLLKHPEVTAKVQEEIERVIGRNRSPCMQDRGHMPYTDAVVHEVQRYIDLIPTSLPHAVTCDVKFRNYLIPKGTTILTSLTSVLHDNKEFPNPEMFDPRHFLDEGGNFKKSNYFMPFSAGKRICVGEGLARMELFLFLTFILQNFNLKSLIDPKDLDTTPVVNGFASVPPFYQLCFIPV
Protocol for CYP3A4: In order to evaluate the properties of the compounds according to the invention the compounds' intrinsic clearances in recombinant human cytochrome P450 (CYP) isoenzymes CYP1A2, CYP2C8, CYP2C19, CYP2D6, CYP3A4, and CYP3A5 were determined.
Incubations were carried out in triplicate. […] The intrinsic clearance was determined based on the rate of disappearance of parent compound. Pantoprazole, omeprazole and the deuterated analogues were determined by HPLC-UV. The lower limit of assay resolution based on experimental variability was 17.6 μl/min/nmol P450.

With `COc1ccnc(C[S+]([O-])c2nc3ccc(OC(F)F)cc3[nH]2)c1OC` (stereo not shown) [H-Pantoprazole, 5-difluoromethoxy-2-[(3,4-dimethoxy-2-pyridinyl)methylsulphinyl]-1H-benzimidazole, reference compound], the “Percent of compound metabolized” value in data set [1] was 61%; in [2], 20%; in data set [3], 28%; in [4] it was 62%; in [5], 78%; in [6] it was 73%. The “Percent of compound metabolized” value in data set [7] was determined as 26%. Besides, the “Contribution of CYP2C19 to the oxidative metabolism” value on CYP2C19 is on record as “contribute to the oxidative metabolism”. Also, in data set [8], the “Substrate concentrations at which formation of M2 appeared to be inhibited” value is on record as “above 100 μM”. Besides, on CYP3A4, the “Contribution of CYP3A4 to the oxidative metabolism” value is “contribute to the oxidative metabolism”.
Take `COc1ccc2[nH]c([S+]([O-])Cc3ncc(C)c(OC)c3C)nc2c1` (racemic) [rac. Omeprazole, 5-methoxy-2-[(4-methoxy-3,5-dimethyl-2-pyridinyl)methylsulphinyl]-1H-benzimidazole, reference compound]: the “Contribution of CYP2C19 to the oxidative metabolism” value on CYP2C19 was “contribute to the oxidative metabolism”. For the same compound, the hepatocyte CLint (commonly the rate of metabolic loss divided by the concentration) in the data set “in vitro” worked out at 2 µL/min/1e6 cells. For the same compound, the “% Σ Clint rac. Omeprazole” value in [9] was found to be 100%. Also, the “Contribution of CYP3A4 to the oxidative metabolism” value on CYP3A4 is recorded as “contribute to the oxidative metabolism”.
For `[2H]C([2H])([2H])Oc1ccnc(C[S@+]([O-])c2nc3cc(OC(F)F)ccc3[nH]2)c1OC` [Example 2, (S)(−)-5-Difluoromethoxy-2-[(3-methoxy-4-trideuteriomethoxy-2-pyridinyl)methylsulfinyl]-1H-benzimidazole], the “Percent of compound metabolized” value is listed as 17% in [1]; 10% in data set [2]; 15% in [3]; 17% in [4]; 54% in [5]; 35% in data set [6]. Also, in data set [7], the “Percent of compound metabolized” value is listed as 19%. Besides, the “Ratio of percent metabolized, Example/Pantoprazole” value in [1] (90 minutes) is on record as 0.28; in data set [2] (90 minutes) it was 0.50; in data set [3] (90 minutes), 0.54; in [4] (90 minutes) it was 0.27; in [5] (90 minutes), 0.69; in data set [6] (90 minutes), 0.48. For the same compound, the “Ratio of percent metabolized, Example/Pantoprazole” value in data set [7] (90 minutes) was 0.73.
